Laboratory results reported in patent publication US20090281106A1, “PROPHYLACTIC AND/OR THERAPEUTIC METHOD FOR RHEUMATOID ARTHRITIS” (Kowa Co., Ltd, priority 2005, published 2009).

System: rat collagen-induced arthritis model
Experiment: rat collagen-induced arthritis model, edema suppression in both hindlimbs
Assay type: in vivo, female Lewis rat (LEW/Crj)
Details: oral, Drug A 3 mg/kg twice a day, Drug B 1.5 mg/kg once a day; for Relative index: edema volume of group / control group; for Edema volume for both hindlimbs: average ± standard error of 5 to 6 rats; for Decreasing rate: vs control group; for edema suppressive effect (in words): sole administration
Method: For the cases of combined administration of 2-benzyl-5-(4-chlorophenyl)-6-[4-(methylthio)phenyl]-2H-pyridazin-3-one (the product synthesized by the above-described method is used) (Drug A) and leflunomide (Drug B), and respective single drug administrations, the effect of edema suppression in both hindlimbs was determined by the following method (rat collagen-induced arthritis model) (FDA, CBER, CDER, CDRH: Guidance for industry—Clinical development programs for drugs, devices, and biological products for the treatment of rheumatoid arthritis (RA)—. (1999)). In addition, the test animal used was female Lewis rat (LEW/Crj) (obtained from Charles River Laboratories Japan, Inc.).
For each 8-week-old LEW/Crj rat, the volume of a portion extending from the ankle to the paw was measured for both hindlimbs (hereinafter, hindlimbs volume) by means of a plethysmometer for small animals (TK-101CMP, product of Unicom), and the total volume was taken as the hindlimbs volume upon initiation of test (hereinafter, Pre value). This Pre value was used as an index to divide the rats into groups by one-parameter-based block randomization, so that the values in the respective groups averaged out.
The collagen emulsion for sensitization that was used to induce arthritis in rats, was prepared by homogenizing a 0.3% Type II collagen solution (Collagen Research Center), Adjuvant Peptide (Peptide Institute, Inc.) and Adjuvant Incomplete Freund (DIFCO), using a Handy Micro Homogenizer (Microtec Nition, Co., Ltd.) under ice-cooling. The collagen emulsion thus prepared was intracutaneously administered at 10 sites in the back of each rat at a dose of 0.1 mL/site, to perform initial sensitization of the rat. Seven days after the initial sensitization, 0.12 mL of the same collagen emulsion was intracutaneously administered to the tail head of each rat, to perform booster sensitization.
Drug administration was conducted from the day after the initial sensitization through 29 days thereafter. The group for sole administration of Drug A was orally administered with the drug at 3 mg/kg, twice a day, in the morning (9:00 to 11:00) and in the evening (15:30 to 17:30). The group for sole administration of Drug B was orally administered with the drug at 1.5 mg/kg, once a day, in the afternoon (11:30 to 13:30). On the other hand, the group for combined administration of Drug A and Drug B was orally administered with Drug A at 3 mg/kg in the morning (9:00 to 11:00) and in the evening (15:30 to 17:30), and with Drug B at 1.5 mg/kg in the afternoon (11:30 to 13:30).
14, 18, 21, 26 and 31 days after the initial sensitization, the hindlimbs volume was measured again for each rat, and the difference between each of the values and the Pre value was determined to calculate the edema volume for both hindlimbs.
Tables 1 to 4 and FIGS. 1 to 4 represent the edema volume for both hindlimbs after 18, 21, 26 and 31 days from the initial sensitization, respectively, of the group for sole administration of Drug A, the group for sole administration of Drug B and the group for combined administration. The edema volume for both hindlimbs (mL) is expressed in the average value±standard error of 5 to 6 rats in each group. Furthermore, the decreasing rate is indicated as (average value of edema volume for both hindlimbs for the control group−the average value of edema volume for hindlimbs for each group)/(average value of edema volume for both hindlimbs for the control group)×100, while the relative index is indicated as (average value of edema volume for both hindlimbs for each group)/(average value of edema volume for both hindlimbs for the control group).

[1] = 18 days after initial sensitization
[2] = 21 days after initial sensitization
[3] = 26 days after initial sensitization
[4] = 31 days after initial sensitization

Row | Compound | Relative index [1] | Edema volume for both hindlimbs [1] [mL] | Decreasing rate [1] [%] | Relative index [2] | Edema volume for both hindlimbs [2] [mL] | Decreasing rate [2] [%] | Relative index [3] | Edema volume for both hindlimbs [3] [mL] | Decreasing rate [3] [%] | Relative index [4] | Edema volume for both hindlimbs [4] [mL] | Decreasing rate [4] [%] | edema suppressive effect (in words)
1 | CSc1ccc(-c2nn(Cc3ccccc3)c(=O)cc2-c2ccc(Cl)cc2)cc1 [Drug A, 2-benzyl-5-(4-chlorophenyl)-6-[4-(methylthio)phenyl]-2H-pyridazin-3-one] | 0.89 | 1.79 ± 0.17 | 11 | 0.90 | 1.54 ± 0.17 | 10 | 0.99 | 1.58 ± 0.27 | 1 | 1.02 | 1.44 ± 0.26 | −2 | did not show a potent edema suppressive effect
2 | Cc1oncc1C(=O)Nc1ccc(C(F)(F)F)cc1 [Drug B, N-(4-trifluoromethylphenyl)-5-methylisoxazole-4-carboxamide] | 0.28 | 0.57 ± 0.32 | 72 | 0.34 | 0.58 ± 0.31 | 66 | 0.49 | 0.78 ± 0.28 | 51 | 0.57 | 0.81 ± 0.26 | 43 | decrease in the edema suppressive effect in the stage after 18 days from the initial sensitization
